Source: patent publication US8217029B2, “Oxazolidinone antibiotics” (Actelion Pharmaceuticals Ltd, priority 2007, dated 2012)
Converted amounts (≈) assume the structure as drawn.

What follows are compounds tested on S aureus A798 (assay: Minimal inhibitory concentration (MIC), microdilution method in cation-adjusted Mueller-Hinton Broth following NCCLS guidelines). Settings: pH of test medium 7.2-7.3.
Assay type: cell-based
Method in brief: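 Broth microdilution per NCCLS M7-A4 in cation-adjusted Mueller-Hinton broth at pH 7.2-7.3; MIC reported in mg/l.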
For `O=C1O[C@H](CN2CCN(c3ccnc4ccccc34)CC2)CN1c1ccc2c(c1)OCCO2` [Example 99, (R)-3-(2,3-Dihydro-benzo[1,4]dioxin-6-yl)-5-(4-quinolin-4-yl-piperazin-1-ylmethyl)-oxazolidin-2-one], the MIC was ≤ 0.031 µg/mL.
`COc1ccc2nccc(N3CCN(C[C@@H]4CN(c5ccc6c(c5)NC(=O)CS6)C(=O)O4)CC3=O)c2n1` [Example 101, 6-{(R)-5-[4-(6-Methoxy-[1,5]naphthyridin-4-yl)-3-oxo-piperazin-1-ylmethyl]-2-oxo-oxazolidin-3-yl}-4H-benzo[1,4]thiazin-3-one] was tested, and the MIC was 0.5 µg/mL (≈ 0.96 µM).
For `COc1ccc2ncc(F)c(N3CCCN(C[C@@H]4CN(c5ccc6c(c5)NC(=O)CO6)C(=O)O4)CC3)c2n1` [Example 103, 6-{(R)-5-[4-(3-Fluoro-6-methoxy-[1,5]naphthyridin-4-yl)-[1,4]diazepan-1-ylmethyl]-2-oxo-oxazolidin-3-yl}-4H-benzo[1,4]oxazin-3-one], the MIC was ≤ 0.031 µg/mL.
With `COc1ccc2ncc(F)c(N3CCCN(C[C@@H]4CN(c5ccc6c(c5)NC(=O)CS6)C(=O)O4)CC3)c2n1` [Example 104, 6-{(R)-5-[4-(3-Fluoro-6-methoxy-[1,5]naphthyridin-4-yl)-[1,4]diazepan-1-ylmethyl]-2-oxo-oxazolidin-3-yl}-4H-benzo[1,4]thiazin-3-one] the MIC was ≤ 0.031 µg/mL.
`COc1ccc2nccc(N3CCCN(C[C@@H]4CN(c5ccc6c(c5)NC(=O)CO6)C(=O)O4)CC3)c2n1` [Example 105, 6-{(R)-5-[4-(6-Methoxy-[1,5]naphthyridin-4-yl)-[1,4]diazepan-1-ylmethyl]-2-oxo-oxazolidin-3-yl}-4H-benzo[1,4]oxazin-3-one] was tested, and the MIC was ≤ 0.031 µg/mL.
With `COc1ccc2nccc(N3CCCN(C[C@@H]4CN(c5ccc6c(c5)NC(=O)CS6)C(=O)O4)CC3)c2n1` [Example 106, 6-{(R)-5-[4-(6-Methoxy-[1,5]naphthyridin-4-yl)-[1,4]diazepan-1-ylmethyl]-2-oxo-oxazolidin-3-yl}-4H-benzo[1,4]thiazin-3-one] the MIC was ≤ 0.031 µg/mL.
`COc1ccc2nccc(N3CCCN(C[C@@H]4CN(c5ccc6c(c5)OCCO6)C(=O)O4)CC3)c2n1` [Example 107, (R)-3-(2,3-Dihydro-benzo[1,4]dioxin-6-yl)-5-[4-(6-methoxy-[1,5]naphthyridin-4-yl)-[1,4]diazepan-1-ylmethyl]-oxazolidin-2-one] was tested, and the MIC was ≤ 0.031 µg/mL.
`COc1ccc2nccc(N3CCCN(C[C@@H]4CN(c5ccc(C)c(F)c5)C(=O)O4)CC3)c2n1` [Example 108, (R)-3-(3-Fluoro-4-methyl-phenyl)-5-[4-(6-methoxy-[1,5]naphthyridin-4-yl)-[1,4]diazepan-1-ylmethyl]-oxazolidin-2-one] gave an MIC of 0.25 µg/mL (≈ 0.537 µM).
With `COc1ccc2nccc(N3CCCN(C(=O)[C@@H]4CN(c5ccc6c(c5)OCCO6)C(=O)O4)CC3)c2n1` [Example 109, (S)-3-(2,3-Dihydro-benzo[1,4]dioxin-6-yl)-5-[4-(6-methoxy-[1,5]naphthyridin-4-yl)-[1,4]diazepane-1-carbonyl]-oxazolidin-2-one] the MIC was ≤ 0.031 µg/mL.
With `COc1ccc2nccc(N3CC[C@H](N(C)C[C@@H]4CN(c5ccc6c(c5)OCCO6)C(=O)O4)C3)c2n1` [Example 112, (R)-3-(2,3-Dihydro-benzo[1,4]dioxin-6-yl)-5-({[(S)-1-(6-methoxy-[1,5]naphthyridin-4-yl)-pyrrolidin-3-yl]-methyl-amino}-methyl)-oxazolidin-2-one] the MIC was ≤ 0.031 µg/mL.
`COc1ccc2nccc(N3CCN(C(=O)C[C@@H]4CN(c5ccc6c(c5)NC(=O)CS6)C(=O)O4)CC3)c2n1` [Example 114, 6-((R)-5-{2-[4-(6-Methoxy-[1,5]naphthyridin-4-yl)-piperazin-1-yl]-2-oxo-ethyl}-2-oxo-oxazolidin-3-yl)-4H-benzo[1,4]thiazin-3-one] was tested, and the MIC was ≤ 0.031 µg/mL.
`COc1ccc2nccc(N3CC(NC(=O)C[C@@H]4CN(c5ccc6c(c5)NC(=O)CS6)C(=O)O4)C3)c2n1` [Example 115, N-[1-(6-Methoxy-[1,5]naphthyridin-4-yl)-azetidin-3-yl]-2-[(R)-2-oxo-3-(3-oxo-3,4-dihydro-2H-benzo[1,4]thiazin-6-yl)-oxazolidin-5-yl]-acetamide] gave an MIC of 1 µg/mL (≈ 1.92 µM).
In the case of `COc1ccc2nccc(N3CC(NC(=O)[C@@H]4CN(c5ccc6c(c5)OCCO6)C(=O)O4)C3)c2n1` [Example 116, (S)-3-(2,3-Dihydro-benzo[1,4]dioxin-6-yl)-2-oxo-oxazolidine-5-carboxylic acid[1-(6-methoxy-[1,5]naphthyridin-4-yl)-azetidin-3-yl]-amide], the “MIC S aureus A798” value is reported as “<=0.031 mg/l”.
`COc1ccc2nccc(N3CC(CN(C)C[C@H]4CN(c5ccc6c(c5)OCCO6)C(=O)O4)C3)c2n1` [Example 118, (S)-3-(2,3-Dihydro-benzo[1,4]dioxin-6-yl)-5-({[1-(6-methoxy-[1,5]naphthyridin-4-yl)-azetidin-3-ylmethyl]-methyl-amino}-methyl)-oxazolidin-2-one] was tested, and the MIC was 0.25 µg/mL (≈ 0.509 µM).
With `COc1ccc2nccc(N3CCC(NC[C@@H]4CN(c5ccc6c(c5)NC(=O)CS6)C(=O)O4)CC3)c2n1` [Example 119, 6-((R)-5-{[1-(6-Methoxy-[1,5]naphthyridin-4-yl)-piperidin-4-ylamino]-methyl}-2-oxo-oxazolidin-3-yl)-4H-benzo[1,4]thiazin-3-one] the MIC was ≤ 0.031 µg/mL.
`COc1ccc2nccc(N3CCC(NC[C@@H]4CN(c5ccc6c(c5)NC(=O)CO6)C(=O)O4)CC3)c2n1` [Example 120, 6-((R)-5-{[1-(6-Methoxy-[1,5]naphthyridin-4-yl)-piperidin-4-ylamino]-methyl}-2-oxo-oxazolidin-3-yl)-4H-benzo[1,4]oxazin-3-one] was tested, and the MIC was ≤ 0.031 µg/mL.
In the case of `COc1ccc2nccc(N3CCC(NC[C@@H]4CN(c5ccc(C)c(F)c5)C(=O)O4)CC3)c2n1` [Example 121, (R)-3-(3-Fluoro-4-methyl-phenyl)-5-{[1-(6-methoxy-[1,5]naphthyridin-4-yl)-piperidin-4-ylamino]-methyl}-oxazolidin-2-one], the MIC is reported as ≤ 0.031 µg/mL.
For `COc1ccc2ncc(F)c(N3CCC(NC[C@@H]4CN(c5ccc6c(c5)NC(=O)CS6)C(=O)O4)CC3)c2n1` [Example 122, 6-((R)-5-{[1-(3-Fluoro-6-methoxy-[1,5]naphthyridin-4-yl)-piperidin-4-ylamino]-methyl}-2-oxo-oxazolidin-3-yl)-4H-benzo[1,4]thiazin-3-one], the MIC was ≤ 0.031 µg/mL.
For `COc1ccc2ncc(F)c(N3CCC(NC[C@@H]4CN(c5ccc6c(c5)NC(=O)CO6)C(=O)O4)CC3)c2n1` [Example 123, 6-((R)-5-{[1-(3-Fluoro-6-methoxy-[1,5]naphthyridin-4-yl)-piperidin-4-ylamino]-methyl}-2-oxo-oxazolidin-3-yl)-4H-benzo[1,4]oxazin-3-one], the MIC was ≤ 0.031 µg/mL.
With `COc1ccc2ncc(F)c(N3CCC(N(C)C[C@@H]4CN(c5ccc6c(c5)NC(=O)CS6)C(=O)O4)CC3)c2n1` [Example 124, 6-[(R)-5-({[1-(3-Fluoro-6-methoxy-[1,5]naphthyridin-4-yl)-piperidin-4-yl]-methyl-amino}-methyl)-2-oxo-oxazolidin-3-yl]-4H-benzo[1,4]thiazin-3-one] the MIC was ≤ 0.031 µg/mL.
In the case of `COc1ccc2nccc(C3(O)CCN(C[C@@H]4CN(c5ccc6c(c5)NC(=O)CS6)C(=O)O4)CC3)c2c1` [Example 125, 6-{(R)-5-[4-Hydroxy-4-(6-methoxy-quinolin-4-yl)-piperidin-1-ylmethyl]-2-oxo-oxazolidin-3-yl}-4H-benzo[1,4]thiazin-3-one], the MIC is reported as ≤ 0.031 µg/mL.
With `COc1ccc2ncc(F)c(C3(O)CCN(C[C@@H]4CN(c5ccc6c(c5)NC(=O)CS6)C(=O)O4)CC3)c2n1` [Example 126, 6-{(R)-5-[4-(3-Fluoro-6-methoxy-[1,5]naphthyridin-4-yl)-4-hydroxy-piperidin-1-ylmethyl]-2-oxo-oxazolidin-3-yl}-4H-benzo[1,4]thiazin-3-one] the MIC was ≤ 0.031 µg/mL.
In the case of `COc1ccc2ncc(F)c(N3CC(N(C)C[C@@H]4CN(c5ccc6c(c5)NC(=O)CO6)C(=O)O4)C3)c2n1` [Example 127, 6-[(R)-5-({[1-(3-Fluoro-6-methoxy-[1,5]naphthyridin-4-yl)-azetidin-3-yl]-methyl-amino}-methyl)-2-oxo-oxazolidin-3-yl]-4H-benzo[1,4]oxazin-3-one], the MIC is reported as ≤ 0.031 µg/mL.
With `COc1ccc2nccc(N3CC(N(CCO)C[C@@H]4CN(c5ccc6c(c5)NC(=O)CS6)C(=O)O4)C3)c2n1` [Example 128, 6-[(R)-5-({(2-Hydroxy-ethyl)-[1-(6-methoxy-[1,5]naphthyridin-4-yl)-azetidin-3-yl]-amino}-methyl)-2-oxo-oxazolidin-3-yl]-4H-benzo[1,4]thiazin-3-one] the MIC was ≤ 0.031 µg/mL.
Work on `COc1ccc2nccc(N3CC(CNC(=O)[C@@H]4CN(c5ccc(C)c(F)c5)C(=O)O4)C3)c2n1` [Example 130, (S)-3-(3-Fluoro-4-methyl-phenyl)-2-oxo-oxazolidine-5-carboxylic acid [1-(6-methoxy-[1,5]naphthyridin-4-yl)-azetidin-3-ylmethyl]-amide] yielded an MIC of 0.25 µg/mL (≈ 0.537 µM).
For `COc1ccc2nc(C)cc(N3CC(NC[C@@H]4CN(c5ccc6c(c5)NC(=O)CS6)C(=O)O4)C3)c2c1` [Example 131, 6-((R)-5-{[1-(6-Methoxy-2-methyl-quinolin-4-yl)-azetidin-3-ylamino]-methyl}-2-oxo-oxazolidin-3-yl)-4H-benzo[1,4]thiazin-3-one], the MIC was ≤ 0.031 µg/mL.
Compound `COc1ccc2nccc(C3(O)CCN(C[C@@H]4CN(c5ccc6c(c5)NC(=O)CO6)C(=O)O4)CC3)c2c1` [Example 132, 6-{(R)-5-[4-Hydroxy-4-(6-methoxy-quinolin-4-yl)-piperidin-1-ylmethyl]-2-oxo-oxazolidin-3-yl}-4H-benzo[1,4]oxazin-3-one] has an MIC of 0.063 µg/mL (≈ 0.125 µM).
Compound `COc1ccc2nccc(N3CC(N(C)C[C@@H]4CN(c5ccccc5)C(=O)O4)C3)c2n1` [Example 133, (R)-5-({[1-(6-Methoxy-[1,5]naphthyridin-4-yl)-azetidin-3-yl]-methyl-amino}-methyl)-3-phenyl-oxazolidin-2-one] has an MIC of 2 µg/mL (≈ 4.77 µM).
In the case of `COc1ccc2nccc(N3CC(N(C)C[C@@H]4CN(c5ccc(OC(F)F)cc5)C(=O)O4)C3)c2n1` [Example 134, (R)-3-(4-Difluoromethoxy-phenyl)-5-({[1-(6-methoxy-[1,5]naphthyridin-4-yl)-azetidin-3-yl]-methyl-amino}-methyl)-oxazolidin-2-one], the MIC is reported as ≤ 0.031 µg/mL.
